One data set concerns C2C12 cells. Kind of data set: Immunofluorescence staining (anti-MHC/DAPI) of multinucleated myotubes, myoblast differentiation. It counts as cell-based, mouse. The method, then: (§1) Various concentrations of inventive extract (1, 10, 100 ng/ml) were treated to C2C12 cells (mouse myoblast cell line; Cat^#CRL-1771, ATCC) in differentiation medium (2% horse serum-containing DMEM, Cat^#11965-084, Gibco) for 3 days to induce their differentiation.
(§2) After removing respective differentiation medium, the differentiated myoblast cells in the differentiation medium were washed with phosphate buffer solution twice and fixed with 4% paraformaldehyde (0141, BBC Biochemical) for 20 mins. After washing the cells with phosphate buffer solution twice again, the cells were treated with 0.1% tritonX-100 (2315025, Sigma) for 20 mins. After washing the cells with phosphate buffer solution twice again, the cells were blocked with 5% horse serum solution (16050122, Gibco) and mouse anti-MHC (MAB4470, R&D systems) was added thereto to react for 12 hours at 4° C.
(§3) After finishing the reaction, the cells were washed with phosphate buffer solution more than 3 times and then the level of MHC expression was analyzed using by Alexa Flouor 568-conjuagted secondary anti-mouse (A-21144, MicoProbes) and DAPI (D9542, Sigma). The test result of immunofluorescence on MHC-positive myotubes was visualized with red color and the DAPI-labelled nucleus was visualized with blue color.
(§4) Various inventive compounds (10 nM) were treated to C2C12 cells (mouse myoblast cell line; Cat^#CRL-1771, ATCC) in differentiation medium (2% horse serum-containing DMEM, Cat^#11965-084, Gibco) for 3 days to induce their differentiation.
(§5) The change of MHC expression caused by inventive compound in myotube cell was determined by immunostaining method using by mouse anti-MHC and anti-mouse IgG2b Alexa-fluor 568 (See FIG. 7) (Chem. Biol. Interact. 2016, 248:60).
(§6) Various concentrations of inventive compound 1 (1, 10 and 100 nM) were treated to C2C12 cells (mouse myoblast cell line; Cat^#CRL-1771, ATCC) in differentiation medium (2% horse serum-containing DMEM, Cat^#11965-084, Gibco) for 3 days to induce their differentiation.

A further data set concerns MHC. Kind of data set: Western blot of MHC expression in differentiating C2C12 myoblasts. It counts as cell-based, mouse. On the procedure:
as §1
(§7) For Western blot analysis, about 3×10^4 mouse myoblast cell cells were incubated in 60 mm plates for 24 hours, and each sample was added to the differentiation medium for 3 days to differentiate. The protein extract was obtained from the differentiated cells using by lysis buffer [25 mM Tris-HCl (pH 7.5), 100 mM NaCl, 1% NP-40, 1% sodium deoxycholate, 0.1% sodium dodecyl sulfate (SDS), and protease inhibitor cocktail, Calbiochem, Darmstadt, Germany). The protein extract (25 μg) was performed to SDS-polyacrylamide gel electorphoresis (PAGE) and transferred to polyvinylidene fluoride (PVDF) membranes.
Primary mouse anti-MHC (sc-376157, Santa Cruz) or anti-myoD (sc-32758, Santa Cruz) was conjugated to the blots at 4° C., for 12 hrs and then conjugated with anti-mouse secondary antibody conjugated to Horseradish peroxidase (goat anti-mouse IgG-HRP, sc-2005, SantaCruz) to analyze the amount of MHC protein by chemiluminescence method. Pan-cadherin (Cat #3678, Sigma) was used as a loading control in the experiment.
as §4
as §7, with “electrophoresis” for “electorphoresis”
as §5, §6
(In general: In western blotting, separated proteins are transferred to a membrane and probed.)

In data set [1] the test system is C2C12 myotube cells treated with dexamethasone. Kind of data set: Immunofluorescence staining of multinucleated MHC-positive myotubes after dexamethasone-induced muscle loss. The format is cell-based, mouse. The conditions noted are these: dexamethasone (12 hours) + compound 10 nM; control group = 1. The method, then:
as §2, §3
About 3×10^4 mouse myoblast cell cells (C2C12; CRL-1772 ATCC) were incubated in 60 mm plates for 24 hours, and various inventive compounds (10 nM) were added to the differentiation medium (0273, Gibco) for 3 days to differentiate.

A further data set has as its system p38 MAPK. Kind of data set: Western blot of phosphorylated p38 MAPK in differentiated myotubes. The format is cell-based, mouse. The conditions noted are these: 3 days after differentiation. The method, then: Various concentrations of inventive extract (1, 10, 100 ng/ml) were treated to myoblast cells and the expressed level of p38 MAPK protein in the lysates of differentiated myotubes obtained at 3 days after the differentiation, was determined according to Western blot analysis.
Primary rabbit-anti phosphorylation p38 MAPK (Cat #9212, Cell Signaling Technology) was reacted with anti-rabbit secondary antibody (goat anti-rabbit IgG-HRP, sc-2004, SantaCruz) to determine the express level of phosphorylated p38 MAPK and primary rabbit-anti-p38 MAPK (Cat #9212, Cell Signaling Technology) was used to determine the expressed amount of total p38 MAPK (loading control)
Various concentrations of inventive compound 1 (1, 10, 100 nM) were treated to myoblast cells and the expressed level of p38 MAPK protein in the lysates of differentiated myotubes obtained at 3 days after the differentiation, was determined according to Western blot analysis.

A further data set deals with myoD. Kind of data set: Western blot of myoD expression in differentiating C2C12 myoblasts. To be noted: 3 days differentiation. The format is cell-based, mouse. The method, then:
Various concentrations of inventive extract (1, 10, 100 ng/ml) were treated to C2C12 cells (mouse myoblast cell line; Ca^#CRL-1771, American Type Culture Collection (ATCC)) and cell lysates obtained from the differentiated cells, were subjected to Western Blot analysis to evaluate the expressed level of MHC and myoD proteins (The result was shown in FIG. 1A). the change of MHC expression caused by inventive extract in myotube cell was determined by immunostaining method using by mouse anti-MHC and anti-mouse IgG2b Alexa-fluor 568 (See FIG. 1B) (Chem. Biol. Interact. 2016, 248:60).
as §1
For Western blot analysis, about 3×10^4 mouse myoblast cell cells were incubated in 60 mm plates for 24 hours, and each sample was added to the differentiation medium for 3 days to differentiate. The protein extract was obtained from the differentiated cells using by lysis buffer [25 mM Tris-HCl (pH 7.5), 100 mM NaCl, 1% NP-40, 1% sodium deoxycholate, 0.1% sodium dodecyl sulfate (SDS), and protease inhibitor cocktail, Calbiochem, Darmstadt, Germany). […]
In order to investigate the myogenic effect of the inventive compound 1 obtained in Example, various concentrations of inventive compound 1 (1, 10 and 100 nM) were treated to C2C12 cells (mouse myoblast cell line; Cat^#CRL-1771, American Type Culture Collection (ATCC)) and cell lysates obtained from the differentiated cells, were subjected to Western Blot analysis to evaluate the expressed level of MHC and myoD proteins (The result was shown in FIG. 6). The change of MHC expression caused by inventive compound in myotube cell was determined by immunostaining method using by mouse anti-MHC and anti-mouse IgG2b Alexa-fluor 568 (See FIG. 7) (Chem. Biol. Interact. 2016, 248:60). […]

Data set [2] deals with C57/BL6 mice. Kind of data set: Grip strength test in dexamethasone animal model of muscle loss. The format is in vivo, mouse. The conditions noted are these: Dexa + oxymetholone 10 mg/kg oral daily. The method, then:
(§8) Dexamethasone, a synthetic glucocorticoid, was injected subcutaneously into C57/BL6 mouse mice to establish an animal model of muscle loss and following experiment was performed.
(§9) To establish an in vivo model of muscle loss, 6 weeks-old male C57/BL6 mice (Raon Bio, 6 weeks old, weight range: 32-36 g) were acclimated for one-week, and then weighed animals determined to be healthy during the acclimatization period. The mice close to the average weight were selected using a simple random sampling method and were classified into five groups, namely, (a) a control group, (b) a muscle loss control group (treated with dexamethasone 1 mg/kg), (c) test sample group treated with inventive extract 250 mg/kg and dexamethasone, (d) test sample group treated with inventive extract 500 mg/kg and dexamethasone, and (e) positive control treated with oxymetholone (Celltrion Co. Ltd, ATC #A14AA05, 10 mg/kg) and dexamethasone.
(§10) The inventive Extract and oxymetholone were administered once to the mice daily for 4 weeks and dexamethasone was injected subcutaneously for 10 days from 10 days before the end of co-treatment of inventive extract and oxymetholone.
(§11) Both of inventive extract and oxymetholone were forcibly administered orally using zonde for oral administration after holding and fixing the skin of the animal's poll area, and dexamethasone was injected slowly subcutaneously after inserting a syringe into the dorsal skin fold of the animal held on the thumb and index finger, slightly aspirating whether it was injected normally, and confirming that no blood came out.
The grip strength of mice was determined as follows; after grabbing the animal's tail and placing it on the grid, the front foot and body were pulled at the same speed until the front foot and body were held at the grid with the front paw, and the average value was calculated after three experimental repetitions. The determination was performed on the 14th and 28th days after the administration of test sample.

In data set [3] the test system is C57/BL6 mice. Kind of data set: Weight of muscle mass, epididymal fat and liver in dexamethasone animal model of muscle loss. To be noted: Dexa + oxymetholone 10 mg/kg oral daily, autopsy at 4 weeks. It counts as in vivo, mouse. On the procedure: as §8, §9, §10, §11
The mice were anesthetized with anesthetic to prevent the movement of experimental animals and sacrificed to minimize pain to dissect them. All instruments used during the experiment were sterilized and disinfected and their liver and epididymis fat were harvested.
The gastrocnemius muscle and soleus muscle of the mice were separated, washed in saline, drained, and weighed.
After autopsy at 4 weeks after administration, the weight of liver and Epididymis fat was weighed to calculate weight-to-weight to compare the relative differences between the organ's weight in the groups.

Data set [4] deals with C57/BL6 mice. Kind of data set: Treadmill test in dexamethasone animal model of muscle loss. The format is in vivo, mouse. The conditions noted are these: Dexa + oxymetholone 10 mg/kg oral daily. The method, then: as §8, §9, §10, §11
The determination was performed on the 14th and 28th days after the administration of test sample.

Data set [5] is described as follows: Body weight in dexamethasone animal model of muscle loss. It counts as in vivo, mouse. To be noted: Dexa + oxymetholone 10 mg/kg oral daily. The method, then:
as §8, §9, §10, §11
The body weight of every animal was measured once a week for 4 weeks from the day of inventive extract administration.

Setting [6] is: compound 10 nM, 3 days differentiation (Experimental Example 3).
Setting [7] is: compound 10 nM, 3 days differentiation, control = 1 (Experimental Example 3).

As for `COc1cc(/C=C/C(=O)OC[C@H](Cc2ccc(O)c(OC)c2)[C@H](COC(=O)/C=C/c2ccc(O)c(OC)c2)Cc2ccc(O)c(OC)c2)ccc1O` [Compound 1, (−)-(2R,3R)-1,4-O-diferuloylsecoisolariciresinol], the “The number of muscle fibers that are multinucleated with five or more nuclei and expressed with MHC (fold)” value in the data set on C2C12 cells (setting [6]) stood at 2.8 fold; in the data set with C2C12 cells (compound 1 at 1 nM (Experimental Example 4)), 1.5 fold; in the data set with C2C12 cells (compound 1 at 10 nM (Experimental Example 4)), 9.0 fold; with C2C12 cells (compound 1 at 100 nM (Experimental Example 4)), 8.0 fold; in data set [1] it was 0.7 fold. Also, the “MHC/pan-cadherin expression (fold)” value in the data set on MHC (setting [7]) is recorded as 1.5 fold; in the data set on MHC (compound 1 at 1 nM, 3 days differentiation (Experimental Example 4)), 1.2 fold; in the data set on MHC (compound 1 at 10 nM, 3 days differentiation (Experimental Example 4)) it was 6.0 fold; in the data set on MHC (compound 1 at 100 nM, 3 days differentiation (Experimental Example 4)), 4.6 fold. The results for the “phosphorylated-p38/p38 expressed amount (fold)” value in the data set on p38 MAPK (compound 1 at 1 nM), in the data set with p38 MAPK (compound 1 at 10 nM) and in the data set with p38 MAPK (compound 1 at 100 nM) were 10.6 fold, 14.8 fold and 15.0 fold, respectively. Further, the “myoD/pan-cadherin expression (fold)” value in the data set with myoD (compound 1 at 1 nM) is reported as 1.2 fold; in the data set with myoD (compound 1 at 10 nM), 1.3 fold; with myoD (compound 1 at 100 nM), 1.7 fold.
Take `O=C(CCc1ccc(O)c(O)c1)CC(O)CCc1ccc(O)c(O)c1` (stereo not shown) [Compound 4, Hirsutanonol]: the “The number of muscle fibers that are multinucleated with five or more nuclei and expressed with MHC (fold)” value with C2C12 cells (setting [6]) stood at 3.1 fold; in data set [1], 0.7 fold. Further, the “MHC/pan-cadherin expression (fold)” value with MHC (setting [7]) is recorded as 1.9 fold.
Turning to `C[C@]12C/C(=C/O)C(=O)C[C@@H]1CC[C@@H]1[C@@H]2CC[C@@]2(C)[C@H]1CC[C@]2(C)O` [Oxy, oxymetholone], the grip strength in the data set with C57/BL6 mice [2] (2 weeks) is recorded as 1.00 ± 0.06 N; in the data set on C57/BL6 mice [2] (4 weeks), 1.25 ± 0.16^a N. Further, in the data set on C57/BL6 mice [3], the “absolute weight, epididymal fat” value was 0.43 ± 0.09^# gram. Moreover, in the data set with C57/BL6 mice [3], the “absolute weight, liver” value was determined as 1.16 ± 0.07 gram. The “absolute weight, calf muscle” value in the data set on C57/BL6 mice [3] (gastrocnemius) is given as 0.251 ± 0.016 gram. Further, in the data set on C57/BL6 mice [3] (soleus), the “absolute weight, fluke muscle” value was 0.023 ± 0.002^d gram. The figures for the “motility (treadmill)” value with C57/BL6 mice [4] (2 weeks) and in the data set with C57/BL6 mice [4] (4 weeks) were 774.75 ± 66.11 meter and 773.93 ± 39.64 meter, respectively. For the same compound, the body weight in data set [5] (0 week) is on record as 22.26 ± 0.71 gram; in data set [5] (1 week) it was 22.49 ± 0.72 gram; in [5] (2 weeks) it was 23.25 ± 0.90 gram; in data set [5] (3 weeks), 23.22 ± 0.93 gram; in data set [5] (4 weeks), 23.20 ± 0.78^b gram.

The record behind these values is patent US20230270805A1, “A COMPOSITION COMPRISING AN EXTRACT OF ALDER TREE OR THE ISOLATED COMPOUNDS THEREFROM FOR TREATING AND PREVENTING SKELETON MUSCLE-RELATED DISORDER AND THE USE THEREOF” (Sookmyung Women's University Indusutry-Academic Cooperation …, priority 2020, published 2023).
